Assay [1] has as its target T1, PfIspE (Plasmodium falciparum, UniProt Q8I470). Nature of the assay: Biochemical IspE assay (PK/LDH-coupled, NADH oxidation at 340 nm). From the text:
(§1) Here, we initiated a high-throughput screening (HTS) campaign on the PfIspE protein (Section S1 in the Supporting Information). The HTS was based on a proprietary library of 100 000 compounds from the BASF company and used the inhibitory potency of the compound against the IspE protein as the readout. The IC50 from the IspE assay was also a key parameter for our chemical optimization study. Therefore, it is important to note that the activity of the target enzyme in the IspE assay is coupled to the oxidation of NADH (which is followed spectrophotometrically at 340 nm) via a cascade of the auxiliary enzymes pyruvate kinase and lactate dehydrogenase (PK/LDH, Section S2 in the Supporting Information). Accordingly, to confirm that the effects observed in the IspE assay are due to inhibition of the target enzyme rather than the auxiliary enzymes, it is crucial to maintain a difference between the PK/LDH and IspE enzymatic activities. Furthermore, as we have previously reported, the biological testing of this chemical class requires careful handling such as storage of the compounds at −20 °C.[19] Based on what has been reported in the literature, a risk-mitigation strategy involves adding a substituent to the C-5 position of the thiazole ring,[20] which we have adhered to in this SAR exploration. […]
(§2) kBar. The lysate was then centrifuged at 15000 rpm for 80 minutes at 4 °C to remove cell debris, and the supernatant was collected.
(§3) 1.2. Protein Purification
(§4) The supernatant containing the target protein was applied to a Ni-chelating Sepharose column (1 cm x 20 cm) that had been equilibrated with the lysis buffer containing 15 mM imidazole. The column was washed with the same buffer supplemented with 15 mM imidazole until the OD280 reached the baseline. The bound proteins were then eluted from the column using a gradient of imidazole ranging from 15 mM to 600 mM, collected in a volume of 100 mL.
(§5) If further purification was required, size exclusion chromatography was performed using a Superdex200 (GE, 2 cm x 60 cm) column. The column was equilibrated with the lysis buffer without imidazole. The eluted IspE fractions from the previous chromatography step were directly applied to the top of the Superdex200 column.
(§6) The purity and integrity of the purified PfIspE protein were assessed using SDS-PAGE.
(§7) The molecular weight of the protein was estimated by comparison with standard protein markers. The concentration of the purified protein was determined using a NanoDrop.
(§8) The purified PfIspE protein was aliquoted and stored at - 80 °C until further use.
(§9) (Note: All procedures were performed at 4 °C unless otherwise specified ).
(§10) 2.0 Biochemical IspE assay
(§11) Escherichia coli IspE[1] and Plasmodium falciparum IspE[2] for IspE assays was expressed, isolated and purified as previously described. All other enzymes and chemicals used in the assays were purchased from Sigma-Aldrich (Taufkirchen, […]
For testing of compounds in the IspE assay, CDP-ME (0.2 mM) in 100 mM Tris-HCl, pH 7.6, 0.02% NaN3 (30 µL) was added to a well of the 384-well microplate, preloaded either with DMSO or with test compound dissolved in DMSO (3 µL). The reaction was started by addition of 100 mM Tris-HCl, pH 7.6, 10 mM MgCl2, 60 mM KCl, 10 mM dithiothreitol, 0.02% NaN3, 1 mM NADH, 2 mM phosphoenolpyruvate, 2 mM ATP, […]
pyruvate kinase (1 U mL–1), lactate dehydrogenase (1 U mL–1) and E. coli IspE (0.05 U mL–1) (27 µL per microplate well).
IC50 values were measured at CDP-ME concentration 100 µM. […]
For both kinds of assays the OD values in the microplate wells were monitored photometrically at 340 nm (room temperature) for 30 to 90 min in a plate reader (SpectraMax5, […], USA). Initial rate values were evaluated with a nonlinear regression method using the program Dynafit.[3]
Figure S1 : IC50 curve of compound 19.
(1 picture or pasted object on this page, not shown here)

Assay [2] has as its target PK-LDH (pyruvate kinase/lactate dehydrogenase). Description: Pyruvate kinase assay (auxiliary enzymes PK/LDH). Format: biochemical. Particulars: determined for PfIspE IC50 < 100 μM.
Excerpt: as §1, with “°C.[19]” for “°C.[19] Based on what has been reported in the literature, a risk-mitigation strategy involves adding a substituent to the C-5 position of the thiazole ring,[20] which we have adhered to in this SAR exploration.”
(§12) For both kinds of assays the OD values in the microplate wells were monitored photometrically at 340 nm (room temperature) for 30 to 90 min in a plate reader (SpectraMax5, […], USA). Initial rate values were evaluated with a nonlinear regression method using the program Dynafit.[3] […]

Assay [3] deals with T2, EcIspE (Escherichia coli, UniProt P62615).
T2 construct: made in house
T2 sequence (P62615 whole entry): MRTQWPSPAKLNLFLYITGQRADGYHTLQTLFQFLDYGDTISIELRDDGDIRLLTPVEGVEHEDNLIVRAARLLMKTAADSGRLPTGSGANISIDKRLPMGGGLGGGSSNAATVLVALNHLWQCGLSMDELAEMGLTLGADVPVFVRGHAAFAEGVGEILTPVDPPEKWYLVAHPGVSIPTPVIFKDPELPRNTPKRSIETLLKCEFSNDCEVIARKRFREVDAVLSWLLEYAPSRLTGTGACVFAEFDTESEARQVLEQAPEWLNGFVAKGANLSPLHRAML
Description: Biochemical IspE assay (PK/LDH-coupled). To be noted: Table S1; read-out: Inhibitory potency on EcIspE. As to the method: as §2, §3, §4, §5, §6, §7, §8, §9, §10, §11, §12

Assay [4] concerns Ec IspE. To be noted: cited from earlier work.
Assay [5] deals with T2, EcIspE. Description: Analytical SDS-PAGE, photoprobe labelling and competition of probe 23 with compound 19. Format: binding. Particulars: for Probe binding to IspE (SDS-PAGE): probe 10 µM, native protein.
The subject of assay [6] is PfNF54. Description: [3H]-hypoxanthine incorporation assay, asexual blood stage parasites. Format: cell-based. To be noted: Plasmodium falciparum. Here is the method: However, direct comparison of the two assays is extremely difficult. Consequently, it is essential to note that the existence of additional target proteins within P. falciparum at this stage is neither confirmed nor ruled out. […]
the compound activity against P. falciparum NF54 asynchronous parasites, the [3H]- hypoxanthine incorporation assay was used as described.[4] Compounds dissolved in DMSO (10 mg/mL) are diluted in hypoxanthine - free culture media and was titrated in duplicates over a 64-fold range in 96 well plates. Parasite culture diluted to 0.3% parasitemia with 1.25% final haematocrit with hypoxantine-free medium was added at 100 µL to each well. Following a 48 h incubation, […] [3H]-hypoxanthine was added per well. Plates are incubated for another 24 h. Radioactivity was then measured using MicroBeta2 liquid scintillation counter (Perkin Elmer, Waltham, US) following parasite harvesting onto Microbeta FilterMate cell harvester (Perkin, Elmer, Waltham, US). The fifty percent inhibitory concentration (IC50) was then calculated by linear interpolation as described.[5]
For the background lysate, HEK293 cells (passage 27) were grown to 90% confluency in Dulbecco´s Modified Eagle´s Medium (DMEM high glucose, Sigma) supplemented with 2 mM L-glutamine and 10% (v/v) heat-inactivated fetal calf serum (FCS) in T-175 cell culture flasks. Lysis was performed using HEPES buffer (pH 7.5 , Roth) containing 1% Nonidet P 40 alternative (NP-40), 0.4% sodium dodecyl sulfate (SDS, Roth) and 1% sodium deoxycholate (Roth). The lysate was gently sonicated three times for 10 s on a Bandelin Sonoplus HD2070 at 10% amplitude. The lysate was cleared by centrifugation at 16.000 x g for 10 min. The protein content of the supernatant was determined using a BCA assay (ROTIQuant, Roth) according to the suppliers specifications and adjusted to 5 µg/µL to yield the stock solutions used in the […]
7.2 Reaction with probe 23
The protein samples were prepared to result in 50 µg lysate protein per lane and/or 10 µg of the respective recombinant protein (see section 1 of this SI). […]

For assay [7], the target named is T1, PfIspE. Nature of the assay: Analytical SDS-PAGE, photoprobe labelling and competition of probe 23 with compound 19. Particulars: for Probe binding to IspE (SDS-PAGE): probe 10 µM, native protein. Format: binding.
Where [8] appears, read: CDP-ME concentration 100 µM, read-out: IC50 PfIspE.
[9] abbreviates: competitor 19 in 15 times excess.
[10] abbreviates: compound 19 in 15 times excess to probe 23 (10 µM).
Where [11] appears, read: parasite growth, 72 h total incubation, read-out: IC50 PfNF54.

Read-outs that look alike come from different tables or passages of the source.

T1 sequence (Q8I470 entry or part of it): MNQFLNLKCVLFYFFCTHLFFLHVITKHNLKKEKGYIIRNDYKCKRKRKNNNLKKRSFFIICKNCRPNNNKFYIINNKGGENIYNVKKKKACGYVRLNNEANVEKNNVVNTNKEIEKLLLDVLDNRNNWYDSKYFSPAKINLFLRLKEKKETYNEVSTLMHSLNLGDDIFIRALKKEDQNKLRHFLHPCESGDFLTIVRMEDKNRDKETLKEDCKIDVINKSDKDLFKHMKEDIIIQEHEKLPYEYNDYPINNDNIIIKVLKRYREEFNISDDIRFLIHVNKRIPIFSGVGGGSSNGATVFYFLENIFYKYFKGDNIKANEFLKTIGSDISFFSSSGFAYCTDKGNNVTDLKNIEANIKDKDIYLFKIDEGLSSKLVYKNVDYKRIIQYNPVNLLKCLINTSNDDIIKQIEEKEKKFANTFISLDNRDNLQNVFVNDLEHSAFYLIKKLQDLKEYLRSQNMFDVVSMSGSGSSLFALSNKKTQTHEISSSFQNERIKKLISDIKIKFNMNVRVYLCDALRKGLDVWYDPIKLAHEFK

As for `CCn1c(C)cc(-c2csc(Nc3ccc(Cl)nc3)n2)c1C` [Compound 16], the IC50 in assay [1] (setting [8]) stood at 216 ± 53 µM.

Turning to `CCn1c(C)cc(-c2csc(Nc3ccc(CN)cc3)n2)c1C` [Compound 18], the values for the IC50 in assay [2] and in assay [1] were more than 500 µM and 86 ± 44 µM, respectively. Take `C#CCn1c(C)cc(-c2csc(Nc3cccc(CC(F)(F)F)c3)n2)c1C` [Compound 21]: the IC50 in assay [3] was more than 500 µM; in assay [1] (setting [8]) it was 286 ± 55 µM. `CCn1c(C)cc(-c2csc(Nc3ccccc3C(F)(F)F)n2)c1C` [Compound 10]: the IC50 in assay [1] (setting [8]) was more than 500 µM.

Turning to `NCCC(=O)Nc1ccc(I)cc1Oc1cc(Cl)cc(Cl)c1` [Compound 2], in assay [4], the IC50 was 63 ± 15 µM.

Consider `CCn1c(C)cc(-c2csc(Nc3ccccc3)n2)c1C` [Compound 12], for which the IC50 in assay [1] (setting [8]) is more than 500 µM.

On to `CCn1c(C)cc(-c2csc(Nc3cc(Cl)cc(Cl)c3)n2)c1C` [Compound 17], for which, in assay [1] (setting [8]), the IC50 is 143 ± 24 µM. The same measure, in the same setting: next, `CCn1c(C)cc(-c2csc(Nc3cccc(C(F)(F)F)c3)n2)c1C` [Compound 9]: 405 ± 114 µM. In the case of `Nc1nc(=O)n(C2CCCS2)cc1C#CCNS(=O)(=O)C1CC1` (stereo not shown) [Compound 1], the IC50 in assay [4] is 8 ± 0.1 µM.

Turning to `C1=C(c2c[nH]c3ncccc23)CCNC1` [Compound 8], the IC50 in assay [4] was 1500 ± 300 µM. `CCn1c(C)cc(-c2csc(Nc3ccc4[nH]ncc4c3)n2)c1C` [Compound 20]: in assay [1] (setting [8]), the IC50 was 121 ± 17 µM. `Oc1csc(Nc2nccs2)n1` [Compound 7]: the IC50 in assay [4] is 160 ± 0.9 µM. Regarding `CCOC(=O)CC1(n2cc(C#CCNS(=O)(=O)C3CC3)c(N)nc2=O)COC1` [Compound 1a], in assay [4], the IC50 was 590 ± 10 µM. In the case of `C#CCn1c(C)cc(-c2csc(Nc3ccc(CC(F)(F)F)cc3)n2)c1C` [Compound 22], the IC50 in assay [3] is 31 ± 13 µM; in assay [1] (setting [8]), 192 ± 21 µM. In the case of `CCn1c(C)cc(-c2csc(Nc3ccc4[nH]cnc4c3)n2)c1C` [Compound 19], the “Reduction in fluorescence of probe 23 label” value in assay [5] (setting [9]) stood at 63%; in assay [7] (setting [9]) it was 48%. Besides, the “Relative fluorescence of probe 23 label remaining” value in assay [5] (setting [10]) is “about 37%”; in assay [7] (setting [10]), approximately 52%. Further, the IC50 in assay [2] was more than 500 µM; in assay [6] (corresponding to 0.82 μg/mL, read-out: IC50 PfNF54 converted to molar), approximately 2.4 µM; in assay [6] (setting [11]), 0.82 ± 0.01 µg/mL; in assay [1] (setting [8]), 53 ± 19 µM. Also, the “Boost in IspE inhibitory potency compared to initial hit 9” value in assay [1] turned out to be 8 fold. As for `C#CCCC1(CC(=O)Nc2ccccc2)N=N1` [Compound 24, reference compound], the “Probe binding to IspE (SDS-PAGE)” value in assay [5] and in assay [7] was “does not show the same binding profile” in each case. With `CCn1c(C)cc(-c2csc(Nc3ccc(Cl)cc3)n2)c1C` [Compound 15], in assay [1] (setting [8]), the IC50 turned out to be 111 ± 34 µM.

For the molecule `C#CCn1c(C)cc(-c2csc(Nc3ccc(C4(C(F)(F)F)N=N4)cc3)n2)c1C` [Compound 23], the IC50 in assay [3] worked out at 77 ± 16 µM; in assay [6] (setting [11]) it was 9.8 ± 2.9 µg/mL; in assay [1] (setting [8]), 145 ± 42 µM. The “Probe binding to IspE (SDS-PAGE)” value in assay [5] and in assay [7] was “high affinity” in each case. In the case of `CCn1c(C)cc(-c2csc(Nc3ccc(N(C)C)cc3)n2)c1C` [Compound 13], in assay [1] (setting [8]), the IC50 was more than 500 µM. Consider `CCn1c(C)cc(-c2csc(Nc3ccc(OC)cc3)n2)c1C` [Compound 14], for which the IC50 in assay [1] (setting [8]) is more than 500 µM. For `CCn1c(C)cc(-c2csc(Nc3ccc(C(F)(F)F)cc3)n2)c1C` [Compound 11], the IC50 in assay [1] (setting [8]) was 128 ± 23 µM.

These data come from PMC11541488, “Targeting the Plasmodium falciparum IspE Enzyme” (ACS Omega, 2024).
